Experiments:
[1] = target: Integrin alpha-IIb/beta-3 (Homo sapiens, UniProt P05106+P08514); assay: Inhibition of fibrinogen binding to platelet glycoprotein alpha IIb beta-3 integrin in ELISA
Cavia porcellus = species on record: Cavia porcellus; assay: Compound was tested for inhibition of ADP induced platelet aggregation in guinea pig; type: functional
Homo sapiens = species on record: Homo sapiens; assay: Compound was tested for inhibition of ADP induced platelet aggregation in human platelet-rich plasma; type: functional

Sequence of Integrin alpha-IIb/beta-3 (P05106 27-788 limits assumed): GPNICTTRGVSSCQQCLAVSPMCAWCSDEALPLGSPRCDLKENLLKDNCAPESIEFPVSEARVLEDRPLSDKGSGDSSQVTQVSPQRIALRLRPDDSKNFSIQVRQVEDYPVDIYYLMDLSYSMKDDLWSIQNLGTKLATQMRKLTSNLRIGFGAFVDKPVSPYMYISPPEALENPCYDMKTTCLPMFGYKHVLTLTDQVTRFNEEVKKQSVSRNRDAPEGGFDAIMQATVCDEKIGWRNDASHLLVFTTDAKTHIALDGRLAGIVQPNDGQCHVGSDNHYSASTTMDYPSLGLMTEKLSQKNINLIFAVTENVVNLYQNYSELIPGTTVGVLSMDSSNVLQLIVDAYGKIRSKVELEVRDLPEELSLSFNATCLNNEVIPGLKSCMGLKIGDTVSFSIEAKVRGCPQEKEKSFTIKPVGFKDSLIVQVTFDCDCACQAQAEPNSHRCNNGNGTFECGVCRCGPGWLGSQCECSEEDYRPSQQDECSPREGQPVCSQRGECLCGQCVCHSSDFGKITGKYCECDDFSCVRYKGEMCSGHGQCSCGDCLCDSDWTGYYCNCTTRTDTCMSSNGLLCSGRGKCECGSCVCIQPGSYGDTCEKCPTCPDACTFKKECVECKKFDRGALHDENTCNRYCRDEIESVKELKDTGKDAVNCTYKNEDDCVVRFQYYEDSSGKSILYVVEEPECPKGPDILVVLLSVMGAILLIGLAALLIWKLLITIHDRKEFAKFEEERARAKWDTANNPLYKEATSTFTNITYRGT
Sequence of Integrin alpha-IIb/beta-3 (P08514 32-887 limits assumed): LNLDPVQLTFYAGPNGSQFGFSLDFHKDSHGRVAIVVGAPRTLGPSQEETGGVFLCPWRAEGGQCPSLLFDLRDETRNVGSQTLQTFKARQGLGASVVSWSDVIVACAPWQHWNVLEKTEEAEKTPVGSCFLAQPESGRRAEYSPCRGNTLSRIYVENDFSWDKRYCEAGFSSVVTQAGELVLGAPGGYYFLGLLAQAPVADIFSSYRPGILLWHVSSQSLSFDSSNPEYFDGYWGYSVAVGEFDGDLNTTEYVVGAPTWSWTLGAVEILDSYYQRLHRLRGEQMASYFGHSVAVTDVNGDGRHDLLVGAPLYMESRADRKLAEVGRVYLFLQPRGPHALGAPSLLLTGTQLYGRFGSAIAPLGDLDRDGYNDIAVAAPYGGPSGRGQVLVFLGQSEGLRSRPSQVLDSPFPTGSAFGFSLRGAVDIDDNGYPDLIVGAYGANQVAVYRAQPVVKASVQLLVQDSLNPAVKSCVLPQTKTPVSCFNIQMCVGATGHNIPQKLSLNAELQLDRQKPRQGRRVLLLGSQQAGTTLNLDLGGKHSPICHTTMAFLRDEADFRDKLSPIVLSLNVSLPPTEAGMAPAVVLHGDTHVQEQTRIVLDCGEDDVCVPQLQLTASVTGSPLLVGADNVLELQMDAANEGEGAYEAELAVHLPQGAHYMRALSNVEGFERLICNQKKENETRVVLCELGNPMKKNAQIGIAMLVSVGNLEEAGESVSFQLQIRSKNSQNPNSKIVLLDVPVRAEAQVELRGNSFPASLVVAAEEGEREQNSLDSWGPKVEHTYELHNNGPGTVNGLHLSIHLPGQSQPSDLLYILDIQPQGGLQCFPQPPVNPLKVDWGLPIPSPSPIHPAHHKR
Sequence of Integrin alpha-IIb/beta-3 (P08514 891-1039 limits assumed): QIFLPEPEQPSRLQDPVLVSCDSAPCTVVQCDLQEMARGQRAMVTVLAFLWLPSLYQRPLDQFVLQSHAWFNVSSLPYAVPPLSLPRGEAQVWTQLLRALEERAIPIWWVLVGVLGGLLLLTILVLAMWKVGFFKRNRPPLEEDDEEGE

Structure (SMILES) | IC50 [1] [µM] | IC50 (Cavia porcellus) [µM] | IC50 (Homo sapiens) [µM]
N=C(N)c1ccc(N2CCN(c3ccc(CC(=O)O)cc3)CC2)cc1 | 1 |  | 
N=C(N)c1ccc(N2CCN(Cc3cccc(OCC(=O)O)c3)CC2)cc1 | 3.98 |  | 
CN(CC(=O)c1ccc(OCC(=O)O)c(OCC(=O)O)c1)C(=O)c1ccc(C(=N)N)cc1 | 0.001 | 0.251 | 
N=C(N)c1ccc(N2CCN(C3CCN(CC(=O)O)CC3)CC2)cc1 | 0.00794 | 0.251 | 0.631
N=C(N)c1ccc(N2CCN(c3ccc(OCCCC(=O)O)cc3)CC2)cc1 | > 10 |  | 
N=C(N)c1ccc(CN2CCN(c3ccc(CC(=O)O)cc3)CC2)cc1 | 2.51 |  | 
N=C(N)c1ccc(N2CCN(c3ccc(CCC(=O)O)cc3)CC2)cc1 | 0.0251 |  | 
N=C(N)c1ccc(N2CCN(c3ccc(OCC(=O)O)cc3)CC2)cc1 | 0.002 | 3.16 | 1
N=C(N)c1ccc(N2CCN(c3cccc(OCC(=O)O)c3)CC2)cc1 | 2 |  | 
CC(C)(Oc1ccc(N2CCN(c3ccc(C(=N)N)cc3)CC2)cc1)C(=O)O | 1 |  | 
N=C(N)c1ccc(N2CCN(Cc3ccc(CC(=O)O)cc3)CC2)cc1 | 0.2 |  | 
N=C(N)c1ccc(CN2CCN(c3cccc(OCC(=O)O)c3)CC2)cc1 | 15.8 |  | 
N=C(N)c1ccc(N2CCN(c3cccc(CC(=O)O)c3)CC2)cc1 | 1.58 |  | 
N=C(N)c1ccc(CN2CCN(c3cccc(CC(=O)O)c3)CC2)cc1 | 39.8 |  | 
N=C(N)c1ccc(N2CCN(Cc3cccc(CC(=O)O)c3)CC2)cc1 | 1.26 |  | 
